Molecules are shown by their SMILES.

The test has as its system Klebsiella pneumoniae. As to the kind of experiment: Antibacterial activity against extended-spectrum beta-lactamase-producing Klebsiella pneumoniae. It counts as functional.
With `CO/N=C(\C(=O)N[C@@H]1C(=O)N2C(C(=O)O)=C(COC(C)=O)CS[C@H]12)c1csc(N)n1` [CEFOTAXIME], the MIC (usually the lowest concentration found to suppress growth) is under 2 µg/mL. The same measure for `CC(C)(O/N=C(\C(=O)N[C@@H]1C(=O)N2C(C(=O)[O-])=C(C[n+]3ccccc3)CS[C@H]12)c1csc(N)n1)C(=O)O` [CEFTAZIDIME]: under 2 µg/mL; for `CO/N=C(\C(=O)N[C@@H]1C(=O)N2C(C(=O)O)=C(CSc3nc(=O)c(O)nn3C)CS[C@H]12)c1csc(N)n1` [CEFTRIAXONE]: under 2 µg/mL.

Source of the values: ChEMBL document CHEMBL1275488, “Extended-spectrum beta-lactamase production is associated with an increase in cell invasion and expression of fimbrial adhesins in Klebsiella pneumoniae” (2008).
